≈ marks a conversion by molar mass, not a printed value. Where “and” joins values, the source holds several entries; their conditions need not be identical. Identical values can stand only once. Entries after “also recorded” stand apart in the source; their conditions may differ. Marks after values point to notes of the source that are not given here.
Key:
[1] = system: Taxol-induced neuropathic pain; assay: Von Frey test (mechanical allodynia) in Taxol induced model of neuropathic pain; type: in vivo, rat
Method: (§1) Neuropathic pain was induced by intraperitoneal administration of Taxol at a dose level of 6 mg/kg on study days 0-6 and 12 mg/kg on study days 7-12. Following injection of Taxol animals experienced pain as was assessed using the von Frey test. The development of neuropathic pain was confirmed by measuring mechanical allodynia (Von Frey test) on study day 13 (for inclusion) and on study day 14 (1 hour and 2 hour post dosing) and 24 hour post first dosing.
All data are presented as means±SEM. Each treatment group was compared to the Vehicle group using Two way ANOVA (for VF) followed by Tukey post-test (GraphPad). Vehicle group is compared to naïve group using T-test. A p value<0.05 is considered to represent a significant difference.
The response to tactile allodynia was evaluated using the Von Frey apparatus (Touch Test®). The rat was placed in an enclosure and positioned on a metal mesh surface, but allowed to move freely. A set of dull monofilaments provide an increasing force was applied on the animal plantar surface of the paw. The lowest force requires for animal paw withdrawal was recorded. Low force values recorded in this test indicate a painful state.

[2] = Survival of animals during the study; type: in vivo, rat
Method: as §1

[3] = Solubility of purified LR-90 in different vehicles; type: physicochemical
Method: In order to develop a vehicle formulation for LR-90 for use in humans, 15 different vehicles were tested to measure the solubility of the purified LR-90 (Table 6).

[4] = Formulation stability in 20% HPβCD in pH 8.0 buffer (HPLC area %); type: physicochemical
[5] = Stability in acidic environment (simulated gastric fluid test), precipitation under polarized light microscope; type: physicochemical
Method: To test the stability in the acidic environment (simulated gastric fluid test) of 5 and 10 mg/ml of LR-90 in 20% HPβCD in pH 8.0 buffer, the two concentrations were added into the equal volume of pH 1.2 buffer, mixed completely, and then observed under a polarized light microscope.

[6] = Pharmacokinetic study following a single oral administration; type: in vivo, Sprague-Dawley (SD) rats; conditions: in 20% HPβCD in pH 8.0 buffer; 50 mg/kg oral gavage; vs salt in water, 4% DMSO in corn oil, Ora-Blend SF
Method: Pharmacokinetic studies of four different formulations of LR-90 were investigated. LR-90 either in salt formulation dissolved in water, in 4% DMSO in corn oil, in 20% HPβCD in pH 8.0 buffer, and in Ora-Blend SF was delivered at a dose of 50 mg/kg by oral gavage in Sprague-Dawley (SD) rats. Blood samples were collected at 0 min, 15 min, 30 min, 1 hr, 2 hr, 4 hr, 8 hr, 24 hr and 48 hr post-dosing. LR-90 level was determined in plasma by LC-MS/MS assay.

[7] = Solubility of purified LR-90 in different vehicles; type: physicochemical; conditions: 20% HPβCD in pH 8.0 buffer (w/v); 5 or 10 mg/ml
[8] = 5 mg/ml LR-90 in 20% HPβCD in pH 8.0 buffer
[9] = 10 mg/ml LR-90 in 20% HPβCD in pH 8.0 buffer

CC(C)(Oc1ccc(NC(=O)Nc2ccc(Cc3ccc(NC(=O)Nc4ccc(OC(C)(C)C(=O)O)cc4)c(Cl)c3)cc2Cl)cc1)C(=O)O [LR-90, methylene bis[4,4′-(2-chlorophenylureidophenoxyisobutyric acid)]]
effect on the sensitivity of the treated animals to mechanical stimulation ([1]; 25 mg/kg): No significant effect
mean Von Frey force required for withdrawal ([1]; 25 mg/kg PO, Group 6, Baseline): 60.00 g
mean Von Frey force required for withdrawal ([1]; 25 mg/kg PO, Group 6, Day 13 pre dosing): 9.81 g
mean Von Frey force required for withdrawal ([1]; 25 mg/kg PO, Group 6, Day 14 1 hour post dosing): 21.88 g
mean Von Frey force required for withdrawal ([1]; 25 mg/kg PO, Group 6, Day 14 2 hours post dosing): 17.31 g
mean Von Frey force required for withdrawal ([1]; 25 mg/kg PO, Group 6, Day 15 24 hours post dosing): 14.13 g
effect on the sensitivity of the treated animals to mechanical stimulation ([1]; 50 mg/kg): No significant effect
mean Von Frey force required for withdrawal ([1]; 50 mg/kg PO, Group 5, Baseline): 60.00 g
mean Von Frey force required for withdrawal ([1]; 50 mg/kg PO, Group 5, Day 13 pre dosing): 9.81 g
mean Von Frey force required for withdrawal ([1]; 50 mg/kg PO, Group 5, Day 14 1 hour post dosing): 17.38 g
mean Von Frey force required for withdrawal ([1]; 50 mg/kg PO, Group 5, Day 14 2 hours post dosing): 22.13 g
mean Von Frey force required for withdrawal ([1]; 50 mg/kg PO, Group 5, Day 15 24 hours post dosing): 16.75 g
mean Von Frey force required for withdrawal ([1]; 100 mg/kg PO, Group 4, Baseline): 57.88 g
mean Von Frey force required for withdrawal ([1]; 100 mg/kg PO, Group 4, Day 13 pre dosing): 10.06 g
mean Von Frey force required for withdrawal ([1]; 100 mg/kg PO, Group 4, Day 14 1 hour post dosing): 34.69**** g
mean Von Frey force required for withdrawal ([1]; 100 mg/kg PO, Group 4, Day 14 2 hours post dosing): 32.56±7.56 g and 32.56*** g
mean Von Frey force required for withdrawal ([1]; 100 mg/kg PO, Group 4, Day 15 24 hours post dosing): 26.25 g
effect on neuropathic pain compared to the vehicle group (Von Frey test) ([1]; 100 mg/kg, Group 4, 1 hour and 2 hour post dosing on study day 14): statistically significantly reduced the neuropathic pain; also recorded: significantly effective in reducing neuropathic pain
Survived Animals in % ([2]; 25 mg/kg PO, Group 6, Study Day 13): 100%
Survived Animals in % ([2]; 25 mg/kg PO, Group 6, Study Day 14): 100%
Survived Animals in % ([2]; 25 mg/kg PO, Group 6, Study Day 15): 100%
Survived Animals in % ([2]; 25 mg/kg PO, Group 6, Study Day 16): 100%
Survived Animals in % ([2]; 25 mg/kg PO, Group 6, Study Day 17): 100%
Survived Animals in % ([2]; 25 mg/kg PO, Group 6, Study Day 18): 100%
Survived Animals in % ([2]; 25 mg/kg PO, Group 6, Study Day 19): 100%
Survived Animals in % ([2]; 25 mg/kg PO, Group 6, Study Day 20): 100%
Survived Animals in % ([2]; 25 mg/kg PO, Group 6, Study Day 21): 100%
Survived Animals in % ([2]; 25 mg/kg PO, Group 6, Study Day 22): 100%
Survived Animals in % ([2]; 25 mg/kg PO, Group 6, Study Day 23): 100%
Survived Animals in % ([2]; 25 mg/kg PO, Group 6, Study Day 24): 100%
Survived Animals in % ([2]; 25 mg/kg PO, Group 6, Study Day 25): 75%
Survived Animals in % ([2]; 25 mg/kg PO, Group 6, Study Day 28): 38%
Survived Animals in % ([2]; 50 mg/kg PO, Group 5, Study Day 13): 100%
Survived Animals in % ([2]; 50 mg/kg PO, Group 5, Study Day 14): 100%
Survived Animals in % ([2]; 50 mg/kg PO, Group 5, Study Day 15): 100%
Survived Animals in % ([2]; 50 mg/kg PO, Group 5, Study Day 16): 100%
Survived Animals in % ([2]; 50 mg/kg PO, Group 5, Study Day 17): 100%
Survived Animals in % ([2]; 50 mg/kg PO, Group 5, Study Day 18): 100%
Survived Animals in % ([2]; 50 mg/kg PO, Group 5, Study Day 19): 100%
Survived Animals in % ([2]; 50 mg/kg PO, Group 5, Study Day 20): 100%
Survived Animals in % ([2]; 50 mg/kg PO, Group 5, Study Day 21): 100%
Survived Animals in % ([2]; 50 mg/kg PO, Group 5, Study Day 22): 88%
Survived Animals in % ([2]; 50 mg/kg PO, Group 5, Study Day 23): 88%
Survived Animals in % ([2]; 50 mg/kg PO, Group 5, Study Day 24): 50%
Survived Animals in % ([2]; 50 mg/kg PO, Group 5, Study Day 25): 50%
Survived Animals in % ([2]; 50 mg/kg PO, Group 5, Study Day 28): 38%
Survived Animals in % ([2]; 100 mg/kg PO, Group 4, Study Day 13): 100%
Survived Animals in % ([2]; 100 mg/kg PO, Group 4, Study Day 14): 100%
Survived Animals in % ([2]; 100 mg/kg PO, Group 4, Study Day 15): 100%
Survived Animals in % ([2]; 100 mg/kg PO, Group 4, Study Day 16): 100%
Survived Animals in % ([2]; 100 mg/kg PO, Group 4, Study Day 17): 100%
Survived Animals in % ([2]; 100 mg/kg PO, Group 4, Study Day 18): 100%
Survived Animals in % ([2]; 100 mg/kg PO, Group 4, Study Day 19): 100%
Survived Animals in % ([2]; 100 mg/kg PO, Group 4, Study Day 20): 100%
Survived Animals in % ([2]; 100 mg/kg PO, Group 4, Study Day 21): 100%
Survived Animals in % ([2]; 100 mg/kg PO, Group 4, Study Day 22): 100%
Survived Animals in % ([2]; 100 mg/kg PO, Group 4, Study Day 23): 88%
Survived Animals in % ([2]; 100 mg/kg PO, Group 4, Study Day 24): 63%
Survived Animals in % ([2]; 100 mg/kg PO, Group 4, Study Day 25): 38%
Survived Animals in % ([2]; 100 mg/kg PO, Group 4, Study Day 28): 38%
Solubility ([3]; Media: 10% Kolliphor RH40 in water (W/V)): 1.22 mg/mL (≈ 1.72 mM)
Solubility ([3]; Media: 10% Solutol in water (W/V)): 1.25 mg/mL (≈ 1.76 mM)
Solubility ([3]; Media: 10% TPGS in water (W/V)): 0.56 mg/mL (≈ 0.789 mM)
Solubility ([3]; Media: 20% Labsol tn water (W/V)): 1.65 mg/mL (≈ 2.33 mM)
Solubility ([3]; Media: 30% Captisol in water (W/V)): 1.71 mg/mL (≈ 2.41 mM)
Solubility ([3]; Media: 40% HPβCD in water (W/V)): 3.66 mg/mL (≈ 5.16 mM)
Solubility ([3]; Media: DMA): >531.00 mg/mL
Solubility ([3]; Media: DMSO): >258.50 mg/mL
Solubility ([3]; Media: EtOH): >4.60 mg/mL
Solubility ([3]; Media: PEG300): >16.79 mg/mL
Solubility ([3]; Media: PEG400): >10.10 mg/mL
Solubility ([3]; Media: PG): >2.27 mg/mL
Solubility ([3]; Media: pH 6.8): 1.67 mg/mL (≈ 2.35 mM)
Solubility ([3]; Media: pH 8): 7.12 mg/mL (≈ 10 mM)
Final Purity (24 hr) (HPLC area) [4, 8]: 99.20%
Initial Purity (HPLC area) [4, 8]: 99.21%
Final Purity (24 hr) (HPLC area) [4, 9]: 99.14%
Initial Purity (HPLC area) [4, 9]: 99.20%
degradation of the compound ([4]; 20% HPβCD solution, at least for 24 hours): no degradation
precipitation after mixing with equal volume of pH 1.2 buffer ([5]; 5 mg/ml LR-90 in 20% HPβCD in pH 8.0 buffer, after an hour): no precipitation
precipitation after mixing with equal volume of pH 1.2 buffer ([5]; 10 mg/ml LR-90 in 20% HPβCD in pH 8.0 buffer, about 60 min): Very little precipitation
pharmacokinetics (plasma LR-90 level) compared with the three other formulations [6]: superior
dissolution to a solution of the drug target concentration [7]: could be dissolved
